Assay [1] addresses T1, ERβ (Homo sapiens, UniProt Q92731).
T1 construct: expressed in transfected cells
Put plainly: Repression of TNF-α activation of TNF-RE-tk-Luc with ERβ (Example 2). Type of assay: cell-based. Conditions: in the presence of ERβ. An excerpt:
(§1) Plasmid Construction. A PstI to AhaII fragment from the human TNF-α gene, pLT, was cloned upstream of the luciferase cDNA. […] ERβ mutants were created with QuikChange site-directed mutagenesis kits (Stratagene), by using oligonucleotides containing the mutation. The mutants were sequenced with Sequenase kits (Amersham Pharmacia) to verify the presence of the mutation.
(§2) For experiments, cells were collected, transferred to a cuvette, and then electroporated with a Bio-Rad gene pulser as described previously using 3 μg of reporter plasmid and 1 μg of ERα or ERβ expression vectors. After electroporation, the cells were re-suspended in media and plated at 1 ml/dish in 12-well multiplates. […] The concentration of hormone required to produce a half-maximal induction (EC50) or inhibition (IC50) of luciferase activity was calculated with the Prism curve-fitting program (Graph Pad Software, version 2.0b). […] The cells were plated in duplicate at a density of 25,000 cells/35-mm plate in tissue culture medium containing 3% stripped fetal bovine serum. […] After 8 days the cells were counted with a Coulter counter.

The target in assay [2] is T1, ERβ. Briefly: Repression of TNF-α activation of TNF-RE-tk-Luc in U2OS cells with transfected ERβ. The format is cell-based.
Source text: as §1, §2
The extracts (a and b) were than decanted and only the soluble material was used.

The subject of a further assay is TNF-RE-tk-Luc. Briefly: Effect of antiestrogens on TNF-RE-tk-Luc (Example 2). The format is cell-based, human. Conditions: for effect on the repression induced by E2: TNF-RE-tk-Luc; for activation of TNF-RE-tk-Luc: antiestrogens, in contrast to E2.
Source text: as §1, §2

The subject of another assay is breast cancer. The settings on record: among the 5129 women in the treatment group; median follow-up of 40 months; cited from earlier work.
Assay [3] relates to estrogen receptor-positive breast cancer. Conditions: five years of therapy; cited from earlier work.
The subject of assay [4] is primary invasive breast cancer. The settings on record: women at high risk for breast cancer; cited from earlier work.

T1 sequence (Q92731 whole entry): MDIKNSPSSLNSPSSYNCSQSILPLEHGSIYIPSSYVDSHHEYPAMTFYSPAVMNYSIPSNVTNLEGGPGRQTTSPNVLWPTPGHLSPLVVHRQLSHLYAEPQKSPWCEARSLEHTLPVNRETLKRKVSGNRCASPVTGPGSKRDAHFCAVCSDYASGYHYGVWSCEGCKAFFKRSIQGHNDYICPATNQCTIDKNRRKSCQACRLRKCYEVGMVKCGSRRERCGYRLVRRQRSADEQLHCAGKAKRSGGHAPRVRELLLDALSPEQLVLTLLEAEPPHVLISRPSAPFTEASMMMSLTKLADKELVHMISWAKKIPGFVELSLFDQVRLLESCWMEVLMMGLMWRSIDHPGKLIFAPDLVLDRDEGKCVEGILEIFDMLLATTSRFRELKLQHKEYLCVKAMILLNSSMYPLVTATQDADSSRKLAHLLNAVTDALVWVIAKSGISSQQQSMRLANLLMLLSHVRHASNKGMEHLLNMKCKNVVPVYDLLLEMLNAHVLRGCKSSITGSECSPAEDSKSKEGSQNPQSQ

For the molecule `C[C@]12CC[C@@H]3c4ccc(O)cc4CC[C@H]3[C@@H]1CC[C@@H]2O` [E2, estradiol], at ERβ [1], the “repression of TNF-α activation of TNF-RE-tk-Luc” value was 60-80%. Further, the “repression of TNF-α activation of TNF-RE” value at ERβ [2] is recorded as 100%.
For the molecule `C[C@]12CC[C@@H]3c4ccc(O)cc4C[C@@H](CCCCCCCCC[S+]([O-])CCCC(F)(F)C(F)(F)F)[C@H]3[C@@H]1CC[C@@H]2O` (stereo partly drawn) [ICI 182,780], in the assay with TNF-RE-tk-Luc, the “effect on the repression induced by E2” value is on record as “abolished the repression induced by E2” and the “activation of TNF-RE-tk-Luc” value is recorded as 2 fold.
For the molecule `O=C(c1ccc(OCCN2CCCCC2)cc1)c1c(-c2ccc(O)cc2)sc2cc(O)ccc12` [raloxifene], in the assay on TNF-RE-tk-Luc, the “effect on the repression induced by E2” value is “abolished the repression induced by E2” and the “activation of TNF-RE-tk-Luc” value worked out at 2 fold. Also, the “cases of breast cancer” value in the assay on breast cancer is reported as 13.
For `CC/C(=C(\c1ccccc1)c1ccc(OCCN(C)C)cc1)c1ccccc1` [tamoxifen], in the assay on TNF-RE-tk-Luc, the “effect on the repression induced by E2” value is given as “abolished the repression induced by E2” and the “activation of TNF-RE-tk-Luc” value worked out at 2 fold. Further, in assay [3], the “reduction of mortality from breast cancer” value is on record as 22% and the “reduction of the risk of recurrences” value is 42%. The “reduction of the risk of primary invasive breast cancer” value in assay [4] is reported as 49%.

These data come from patent US20060134243A1, “Method of using extracts of epimedium species” (Bionovo, Inc., priority 2004, published 2006).
